In ChEMBL document CHEMBL1129789, “Dopamine D3 and D4 receptor antagonists: synthesis and structure--activity relationships of (S)-(+)-N-(1-Benzyl-3-pyrrolidinyl)-5-chloro-4- [(cyclopropylcarbonyl) amino]-2-methoxybenzamide (YM-43611) and related compounds” (J Med Chem, 1996):

How the values were obtained:
[1] = target: T1, 5-hydroxytryptamine receptor 1A (Rattus norvegicus, UniProt P19327); assay: Compound was tested for the Binding affinity against rat hippocampal 5-hydroxytryptamine 1A receptor by Radio ligand [3H]8-OH-DPAT binding assay.; format: tissue-based, Hippocampus
T1 sequence (P19327 whole entry): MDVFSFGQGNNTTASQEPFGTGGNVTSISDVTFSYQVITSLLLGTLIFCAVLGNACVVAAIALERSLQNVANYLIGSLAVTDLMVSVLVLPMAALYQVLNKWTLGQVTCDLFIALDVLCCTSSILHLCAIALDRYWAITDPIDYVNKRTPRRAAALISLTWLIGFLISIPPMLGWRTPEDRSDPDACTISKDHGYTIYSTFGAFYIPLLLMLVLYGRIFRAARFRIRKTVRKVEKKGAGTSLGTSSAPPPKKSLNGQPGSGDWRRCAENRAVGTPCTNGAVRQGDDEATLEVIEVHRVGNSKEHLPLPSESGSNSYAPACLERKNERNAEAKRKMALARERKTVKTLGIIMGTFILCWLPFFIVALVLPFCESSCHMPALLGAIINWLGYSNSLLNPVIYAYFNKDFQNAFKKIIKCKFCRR

[2] = target: T2, Adrenergic receptor alpha-1 (Rattus norvegicus, UniProt P15823+P23944+P43140); assay: Compound was tested for the binding affinity against rat cortical Alpha-1 adrenergic receptor by radioligand [3H]prazosin binding assay.; format: protein assay
T2 sequence (P15823 whole entry): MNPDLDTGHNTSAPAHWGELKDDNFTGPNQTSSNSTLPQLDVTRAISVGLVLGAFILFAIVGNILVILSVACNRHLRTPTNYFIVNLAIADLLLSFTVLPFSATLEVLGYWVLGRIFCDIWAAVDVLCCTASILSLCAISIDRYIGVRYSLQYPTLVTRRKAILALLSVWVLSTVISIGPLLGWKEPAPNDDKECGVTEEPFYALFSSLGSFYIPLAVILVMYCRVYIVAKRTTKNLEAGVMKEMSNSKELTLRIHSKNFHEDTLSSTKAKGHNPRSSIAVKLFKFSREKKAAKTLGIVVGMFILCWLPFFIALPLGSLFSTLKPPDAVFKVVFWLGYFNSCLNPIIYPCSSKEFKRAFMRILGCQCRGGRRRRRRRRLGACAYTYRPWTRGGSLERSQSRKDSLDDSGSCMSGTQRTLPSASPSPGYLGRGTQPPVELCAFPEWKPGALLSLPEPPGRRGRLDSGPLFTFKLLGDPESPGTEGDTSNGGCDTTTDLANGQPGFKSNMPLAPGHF
T2 sequence (P23944 whole entry): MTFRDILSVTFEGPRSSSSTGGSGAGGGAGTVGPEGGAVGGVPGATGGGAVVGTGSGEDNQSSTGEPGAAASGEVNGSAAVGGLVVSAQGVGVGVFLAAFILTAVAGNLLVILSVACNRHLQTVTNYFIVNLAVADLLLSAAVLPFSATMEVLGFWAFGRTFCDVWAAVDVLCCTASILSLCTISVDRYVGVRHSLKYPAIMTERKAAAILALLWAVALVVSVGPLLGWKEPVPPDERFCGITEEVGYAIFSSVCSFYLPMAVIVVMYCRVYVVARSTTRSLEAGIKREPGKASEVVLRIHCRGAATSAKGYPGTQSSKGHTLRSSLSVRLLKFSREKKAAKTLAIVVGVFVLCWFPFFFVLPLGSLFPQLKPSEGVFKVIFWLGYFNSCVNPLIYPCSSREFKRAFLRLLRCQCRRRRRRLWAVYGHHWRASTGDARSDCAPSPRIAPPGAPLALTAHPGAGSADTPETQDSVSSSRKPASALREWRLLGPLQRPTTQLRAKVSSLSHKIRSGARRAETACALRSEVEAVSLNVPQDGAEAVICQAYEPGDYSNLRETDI
T2 sequence (P43140 whole entry): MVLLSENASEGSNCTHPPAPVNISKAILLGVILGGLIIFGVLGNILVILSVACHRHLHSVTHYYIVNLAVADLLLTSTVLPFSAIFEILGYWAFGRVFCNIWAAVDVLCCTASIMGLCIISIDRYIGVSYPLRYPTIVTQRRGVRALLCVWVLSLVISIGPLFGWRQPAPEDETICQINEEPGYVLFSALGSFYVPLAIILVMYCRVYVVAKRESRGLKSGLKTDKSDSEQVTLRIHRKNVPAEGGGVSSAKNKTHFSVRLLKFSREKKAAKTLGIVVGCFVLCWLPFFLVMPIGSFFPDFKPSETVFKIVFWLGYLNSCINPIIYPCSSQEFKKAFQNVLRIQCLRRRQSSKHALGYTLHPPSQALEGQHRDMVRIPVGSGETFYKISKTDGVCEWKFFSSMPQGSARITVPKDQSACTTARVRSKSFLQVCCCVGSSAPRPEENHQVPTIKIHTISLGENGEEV

[3] = test system: Mus musculus; assay: Compound was tested for inhibition of Apomorphine induced climbing in Mice on subcutaneous administration; format: functional; conditions: sc
[4] = target: T3, 5-hydroxytryptamine receptor 3A (Mus musculus, UniProt P23979)
T3 sequence (P23979 whole entry): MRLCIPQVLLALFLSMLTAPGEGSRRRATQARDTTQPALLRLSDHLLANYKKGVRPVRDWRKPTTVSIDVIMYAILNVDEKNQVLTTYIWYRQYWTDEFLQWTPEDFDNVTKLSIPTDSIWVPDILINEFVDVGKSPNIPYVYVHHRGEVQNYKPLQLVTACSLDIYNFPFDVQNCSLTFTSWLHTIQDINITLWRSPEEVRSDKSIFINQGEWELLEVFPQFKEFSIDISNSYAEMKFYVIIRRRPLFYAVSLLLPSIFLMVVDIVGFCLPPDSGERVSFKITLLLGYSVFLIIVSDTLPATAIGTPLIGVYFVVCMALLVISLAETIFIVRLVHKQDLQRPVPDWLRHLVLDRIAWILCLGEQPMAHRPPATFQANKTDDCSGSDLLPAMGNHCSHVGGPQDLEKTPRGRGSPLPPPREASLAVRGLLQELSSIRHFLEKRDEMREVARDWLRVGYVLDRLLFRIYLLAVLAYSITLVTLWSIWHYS

[5] = target: D(1B) dopamine receptor (Homo sapiens, UniProt P21918)
Sequence of D(1B) dopamine receptor (P21918 whole entry): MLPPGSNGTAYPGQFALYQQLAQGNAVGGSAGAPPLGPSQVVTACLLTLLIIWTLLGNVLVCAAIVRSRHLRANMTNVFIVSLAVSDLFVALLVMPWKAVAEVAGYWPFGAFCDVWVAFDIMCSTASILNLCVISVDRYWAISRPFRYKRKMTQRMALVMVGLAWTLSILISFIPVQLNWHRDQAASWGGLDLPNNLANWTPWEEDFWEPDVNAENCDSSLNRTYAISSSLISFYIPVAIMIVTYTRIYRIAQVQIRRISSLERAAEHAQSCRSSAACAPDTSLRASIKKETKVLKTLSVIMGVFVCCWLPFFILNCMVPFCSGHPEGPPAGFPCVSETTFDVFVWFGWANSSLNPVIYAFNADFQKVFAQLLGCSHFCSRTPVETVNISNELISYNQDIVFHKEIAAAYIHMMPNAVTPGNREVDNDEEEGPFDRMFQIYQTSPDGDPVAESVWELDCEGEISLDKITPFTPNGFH

[6] = target: 5-hydroxytryptamine receptor 2A (Rattus norvegicus, UniProt P14842); assay: biochemical
Sequence of 5-hydroxytryptamine receptor 2A (P14842 whole entry): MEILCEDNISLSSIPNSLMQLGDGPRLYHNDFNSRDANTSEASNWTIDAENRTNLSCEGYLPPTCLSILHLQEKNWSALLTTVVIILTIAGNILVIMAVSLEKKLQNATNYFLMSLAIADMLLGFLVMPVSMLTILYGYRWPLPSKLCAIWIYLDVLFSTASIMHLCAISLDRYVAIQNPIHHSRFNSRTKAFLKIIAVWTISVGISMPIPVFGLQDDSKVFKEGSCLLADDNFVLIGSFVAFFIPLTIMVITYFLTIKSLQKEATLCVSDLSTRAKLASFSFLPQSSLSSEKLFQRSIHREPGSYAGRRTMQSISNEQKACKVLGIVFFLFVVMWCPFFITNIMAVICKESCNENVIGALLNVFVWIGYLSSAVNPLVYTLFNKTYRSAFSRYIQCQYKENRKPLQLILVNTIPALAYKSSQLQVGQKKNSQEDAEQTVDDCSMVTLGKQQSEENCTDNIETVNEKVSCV

Ki [1]: > 10 µM
Ki [2]: 5.3 µM
Ki [4]: 4 µM
Ki [5]: > 10 µM
Ki [6]: > 10 µM
SMILES: COc1cc(NC(=O)C2CC2)c(Cl)cc1C(=O)N[C@H]1CCN(Cc2ccccc2)C1
ED50 [3]: 0.32 mg/kg
